Patent US6676932B2, “Ultraviolet absorbent, photostabilizer, ultraviolet ray-absorbing composition, photostabilized composition and external preparation for skin” (Shiseido Co., Ltd., priority 2001, dated 2004)

Tests used:
[1] = Drug stabilization effect blended with sequestering agent (Test Examples 372 to 391); assay type: physicochemical; design: key to Appearance (visual determination): ◯: no change; Δ: almost no change; x: change; conditions: drug Glycyrrhizinic acid dipotassium 0.05, photostabilizer blend amount 0.03, daylight exposure (80 MJ)
Method: Then, the photostabilization effect of the pyridazine derivative in combination with sequestering agents on each drug and the change of the appearance of each composition were examined, by using the following formulation for assessment.
(§1) For observation of the change of the appearance of each test sample (determination based on visual observation) and the measurement of the remaining ratio by liquid chromatography before and after daylight exposure (80 MJ), the test sample was prepared.

skin = assay: Test of skin irritation: 24-hour occlusion patch test (Test Example 3 ii); assay type: in vivo, human; conditions: 10 wt % ultraviolet absorbent
Method: The same samples as in the Test Example 2 were used (at a 10 wt % amount of an ultraviolet absorbent).
20 Healthy male and female volunteers per one group were carried out in a 24-hour occlusion patch test, using a fin chamber on forearm curves. Assessment was done on the basis of the following assessment standards.
Mean score was determined for the assessment on the basis of the following standards.
◯: mean score of more than 0 to less than 1.
Δ: mean score of 1 or more to less than 2.
x: mean score of 2 or more.

sunburn = assay: Ultraviolet preventive effect, application test on beach in summer (Test Example 2); assay type: in vivo, human
Method: An application test was carried out on beach in summer. Equal volumes of samples were individually coated on back halves of subjects. After exposure to direct daylight, the degree of sunburn was assessed according to the following assessment standards. Each group consists of 10 subjects.
Prominently effective: none or almost no sunburn symptom was observed.
Effective: light sunburn symptom was observed.
Ineffective: strong sunburn symptom was observed.
⊚: prominently effective or effective for 80% or more of the subjects.
◯: prominently effective or effective for 50% or more to less than 80% of the subjects.
Δ: prominently effective or effective for 30% or more to less than 50% of the subjects.
x: prominently effective or effective for less than 30% of the subjects.
The aqueous phase and the alcohol phase were separately prepared and then mixed together.
Propylene glycol was added to and dissolved in ion exchange water. The resulting solution was retained at 70° C. under heating (aqueous phase). Other ingredients were mixed […]. The resulting mixture was melted under heating and retained at 70° C. (oil phase). The oil phase was added to the aqueous phase, for preliminary emulsification with a homomixer to homogeneity. Under thorough mixing, subsequently, the mixture was cooled to 30° C.

[2] = Dye stabilization effect under daylight exposure (Test Examples 6-91); assay type: physicochemical; design: key to Δ E: color difference ΔE in Lab vs. color before daylight exposure; key to Appearance (visual determination): ◯: no change; Δ: almost no change; x: change; conditions: photostabilizer 0.05 wt %, daylight exposure (80 MJ)
Outline: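 Test samples exposed to daylight to 80 MJ; appearance judged visually. Colour measured by spectrophotometer in Lab coordinates, with ΔE calculated relative to pre-exposure values (L1, a1, b1).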

[3] = Drug stabilization effect under daylight exposure (Test Examples 182 to 211); assay type: physicochemical; design: key to Appearance (visual determination): ◯: no change; Δ: almost no change; x: change; conditions: photostabilizer 0.05 wt %, daylight exposure (80 MJ); for Remaining ratio (%): liquid chromatography
Method: as §1

[4] = Stability test in combination with inorganic powder-based ultraviolet shielding agent, sunscreen cream (Test Example 5); assay type: physicochemical; conditions: sunscreen cream with inorganic powders; ultraviolet absorbent 10.0 wt %; 50° C. for 2 months; visual observation
Method: A sunscreen cream of the following formulation was prepared and stored at 50° C. for 2 months. Under visual observation of the color change, the stability of the inventive pyridazine derivative in combination with inorganic powder-based ultraviolet screening agents commonly in blend as external preparations for skin for the purpose of ultraviolet prevention was examined.
After the ingredient 2 was added to the ingredient 1 to swell the ingredient 2, the ingredients 3 to 11 were mixed with the resulting mixture under heating, for sufficient dispersion and dissolution. While keeping the dispersion at 70° C., a solution of the mixture of the ingredients 12 to 15 was gradually added to the dispersion under thorough emulsification with a homomixer. The resulting mixture was cooled to 30° C. under sufficient stirring to prepare sunscreen creams.

[5] = Dye stabilization effect in blend with sequestering agents (Test Examples 212 to 275); assay type: physicochemical; conditions: daylight exposure (80 MJ)
Outline: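 Colour difference (ΔE) measured by spectrophotometer in Lab coordinates before and after daylight exposure (80 MJ), relative to pre-exposure values (L1, a1, b1); appearance change also assessed visually.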

[6] = Photostability test of aqueous solutions under daylight (Test Example 4); assay type: physicochemical; conditions: aqueous solution, daylight for 2 weeks (80 MJ)
Method: Aqueous solutions of the pyridazine derivative of the invention were exposed to daylight for 2 weeks (at a daylight exposure of 80 MJ). Subsequently, the remaining ratio and the change of the appearance were examined to measure the ultraviolet spectra with a spectrophotometer (solvent: water; concentration of 10 ppm and optical path length of 1 cm). The area under ultraviolet spectra curve from 290 nm to 400 nm were determined by integration to compare the area with the area before daylight exposure.
The remaining ratio and the change of the area under the ultraviolet spectrum were determined on the basis of the following standards.
⊚: 95% or more of those before daylight exposure.
◯: 90% or more to less than 95% of those before daylight exposure.
Δ: 70% or more to less than 90% of those before daylight exposure.
x: less than 70% of those before daylight exposure.

[7] = dye Blue 1 (Brilliant Blue FCF) 0.0001 wt %
[8] = dye Green 3 (Fast Green FCF) 0.001 wt %
[9] = dye Red 227 (Acid Fuchsine D) 0.0001 wt %
[10] = dye Yellow 5 (Sunset Yellow FCF) 0.001 wt %
[11] = dyes Red 106 (Acid red) 0.00001 + Yellow 203 (Quinoline Yellow WS) 0.0001 wt %
[12] = dyes Red 213 (Rhodamine B) 0.00001 + Blue 1 (Brilliant Blue FCF) 0.00001 wt %
[13] = dyes Red 401 (Violanin R) 0.0001 + Blue 1 (Brilliant Blue FCF) 0.00001 wt %
[14] = drug Dipotassium glycyrrhizinate 0.05 wt %
[15] = drug dibutylhydroxytoluene 0.01 wt %
[16] = drug dl-α-tocopherol 2-L-ascorbic acid phosphate diester potassium salt 0.01 wt %

Appearance (visual determination) ([1]; no sequestering agent): ◯
Appearance (visual determination) ([1]; with sodium metaphosphate 0.03): ◯
Remaining ratio (%) [3, 14]: 98.9%
Remaining ratio (%) [3, 15]: 98.8%
Remaining ratio (%) [3, 16]: 98.0%
Color change [4]: no
Δ E ([5]; dyes Red 227 (Acid Fuchsine D) 0.0001 + Yellow 203 (Quinoline Yellow WS) 0.0001, no sequestering agent, photostabilizer blend amount 0.01): 1.68
Δ E ([5]; dyes Red 227 (Acid Fuchsine D) 0.0001 + Yellow 203 (Quinoline Yellow WS) 0.0001, with sodium metaphosphate 0.02, photostabilizer blend amount 0.01): 0.98
Compound: Oc1cc(N2CCOCC2)cnn1 [3-Hydroxy-5-morpholinopyridazine, 3-hydroxy-5-morpholinopyridazine]
Determination (skin reaction, patch test) (skin; cream): ⊚ (mean score of 0)
Determination (skin reaction, patch test) (skin; lotion): ⊚ (mean score of 0)
Ultraviolet prevention effect (sunburn; cream, blend amount 0.0005 wt %): Δ (prominently effective or effective for 30% or more to less than 50% of the subjects)
Ultraviolet prevention effect (sunburn; cream, blend amount 0.001 wt %): ◯ (prominently effective or effective for 50% or more to less than 80% of the subjects)
Ultraviolet prevention effect (sunburn; cream, blend amount 0.01 wt %): ⊚ (prominently effective or effective for 80% or more of the subjects)
Ultraviolet prevention effect (sunburn; cream, blend amount 1 wt %): ⊚ (prominently effective or effective for 80% or more of the subjects)
Ultraviolet prevention effect (sunburn; cream, blend amount 5 wt %): ⊚ (prominently effective or effective for 80% or more of the subjects)
Ultraviolet prevention effect (sunburn; cream, blend amount 10 wt %): ⊚ (prominently effective or effective for 80% or more of the subjects)
Ultraviolet prevention effect (sunburn; cream, blend amount 20 wt %): ⊚ (prominently effective or effective for 80% or more of the subjects)
Ultraviolet prevention effect (sunburn; lotion, blend amount 0.0005 wt %): Δ (prominently effective or effective for 30% or more to less than 50% of the subjects)
Ultraviolet prevention effect (sunburn; lotion, blend amount 0.001 wt %): ◯ (prominently effective or effective for 50% or more to less than 80% of the subjects)
Ultraviolet prevention effect (sunburn; lotion, blend amount 0.01 wt %): ⊚ (prominently effective or effective for 80% or more of the subjects)
Ultraviolet prevention effect (sunburn; lotion, blend amount 1 wt %): ⊚ (prominently effective or effective for 80% or more of the subjects)
Ultraviolet prevention effect (sunburn; lotion, blend amount 5 wt %): ⊚ (prominently effective or effective for 80% or more of the subjects)
Ultraviolet prevention effect (sunburn; lotion, blend amount 10 wt %): ⊚ (prominently effective or effective for 80% or more of the subjects)
Ultraviolet prevention effect (sunburn; lotion, blend amount 20 wt %): ⊚ (prominently effective or effective for 80% or more of the subjects)
Appearance (visual determination) [2, 7]: ◯
Δ E [2, 7]: 1.31
Appearance (visual determination) [2, 8]: ◯
Δ E [2, 8]: 0.48
Appearance (visual determination) [2, 9]: ◯
Δ E [2, 9]: 0.52
Appearance (visual determination) [2, 10]: ◯
Δ E [2, 10]: 0.52
Appearance (visual determination) [2, 11]: ◯
Δ E [2, 11]: 0.85
Appearance (visual determination) [2, 12]: ◯
Δ E [2, 12]: 1.08
Appearance (visual determination) [2, 13]: ◯
Δ E [2, 13]: 0.44
Appearance (visual determination) [3, 14]: ◯
Appearance (visual determination) [3, 15]: ◯
Appearance (visual determination) [3, 16]: ◯
Δ E ([5]; dye Yellow 5 (Sunset Yellow FCF) 0.0001, photostabilizer 0.01, no sequestering agent): 0.61
Δ E ([5]; dye Yellow 5 (Sunset Yellow FCF) 0.0001, photostabilizer 0.01, with ethylenediaminetetraacetate trisodium 0.03): 0.52
Δ E ([5]; dye Yellow 5 (Sunset Yellow FCF) 0.0001, photostabilizer 0.01, with sodium metaphosphate 0.03): 0.55
Δ E ([5]; dye Yellow 5 (Sunset Yellow FCF) 0.0001, photostabilizer 0.01, with sodium polyphosphate 0.03): 0.46
Remaining ratio [6]: ⊚ (95% or more of those before daylight exposure)
Change of area under ultraviolet spectrum ([6]; 290 nm to 400 nm): ⊚ (95% or more of those before daylight exposure)
